Laboratory results published in PubChem BioAssay AID330 (DTP/NCI, 2004).
Values joined by “and” are separate entries in the source; they are usually repeats but may differ in a detail not shown here. Equal values may be shown once. Toxic doses and inconclusive results are not listed. How the source made its calls: active means survival T/C of 150% or more; inactive means T/C below 125% in these data.

Tested on: P388 leukemia ip, CD2F1 mice, survival T/C
Assay: NCI In Vivo Anticancer Drug Screen. Data for tumor model P388 Leukemia (intraperitoneal) in CD2F1 (CDF1) mice
Conditions: endpoint: median survival time, higher = longer survival
Method in brief: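 Mice carrying the transplanted tumor received test compound or vehicle. Survival was recorded in each group, and the value is the treated-group measurement divided by that of the vehicle-treated control group.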

[1] = dose: 400.0 mg/kg/injection, schedule: Q01DX009 (ip), vehicle: saline with Tween-80
[2] = dose: 50.0 mg/kg/injection, schedule: Q01DX009 (ip), vehicle: Klucel (hydroxypropylcellulose) (HPC)
[3] = dose: 100.0 mg/kg/injection, schedule: Q01DX009 (ip), vehicle: Klucel (hydroxypropylcellulose) (HPC)
[4] = dose: 100.0 mg/kg/injection, schedule: Q04DX003 (ip), vehicle: Klucel (hydroxypropylcellulose) (HPC)
[5] = dose: 200.0 mg/kg/injection, schedule: Q04DX003 (ip), vehicle: Klucel (hydroxypropylcellulose) (HPC)
[6] = dose: 400.0 mg/kg/injection, schedule: Q04DX003 (ip), vehicle: Klucel (hydroxypropylcellulose) (HPC)
[7] = dose: 100.0 mg/kg/injection, schedule: Q01DX009 (ip), vehicle: saline with Tween-80
[8] = dose: 200.0 mg/kg/injection, schedule: Q01DX009 (ip), vehicle: saline with Tween-80
[9] = dose: 50.0 mg/kg/injection, schedule: Q01DX009 (ip), vehicle: saline with Tween-80
[10] = dose: 60.0 mg/kg/injection, schedule: Q01DX005 (ip), vehicle: saline with Tween-80
[11] = dose: 120.0 mg/kg/injection, schedule: Q01DX005 (ip), vehicle: saline with Tween-80
[12] = dose: 100.0 mg/kg/injection, schedule: Q01DX005 (ip), vehicle: saline with Tween-80

Measured: T/C

C/C(=C\COc1ccc2ccc(=O)oc2c1)C1=CC(=O)C(C)(C)O1
inactive: dose: 266.0 mg/kg/injection, schedule: Q01DX009 (ip), vehicle: saline with Tween-80 115 % of control | [1] 114 % of control | dose: 600.0 mg/kg/injection, schedule: Q01DX009 (ip), vehicle: saline with Tween-80 123 % of control

Cc1nn(C(=O)c2ccncc2)c(C)c1N=Nc1ccc([N+](=O)[O-])cc1
inactive: [2] 92 % of control | [3] 93 % of control

COP(=O)(O)OC.[V]
inactive: dose: 50.0 mg/kg/injection, schedule: Q04DX003 (ip), vehicle: saline with Tween-80 96 % of control | dose: 100.0 mg/kg/injection, schedule: Q04DX003 (ip), vehicle: saline with Tween-80 103 % of control and 108 % of control | dose: 200.0 mg/kg/injection, schedule: Q04DX003 (ip), vehicle: saline with Tween-80 99 % of control

C=CCSC(=S)Nc1nc2ccc(C)cc2s1
inactive: [4] 96 % of control | [5] 98 % of control | [6] 97 % of control

O=C(Nc1nc2ccc([N+](=O)[O-])cc2s1)C(F)(F)C(F)(F)F
inactive: dose: 6.25 mg/kg/injection, schedule: Q01DX009 (ip), vehicle: saline 112 % of control | dose: 12.5 mg/kg/injection, schedule: Q01DX009 (ip), vehicle: saline 112 % of control | dose: 25.0 mg/kg/injection, schedule: Q01DX009 (ip), vehicle: saline 106 % of control

CC(=O)[C@H]1CC[C@H]2[C@@H]3C[C@H](F)C4=CC(=O)CC[C@]4(C)[C@H]3C(=O)C[C@]12C
inactive: [7] 100 % of control | [8] 100 % of control | [1] 100 % of control

CC1(C)CC(=O)C2=C(C1)Nn1c(nnc1C(F)(F)F)S2
inactive: [9] 102 % of control | [7] 110 % of control | [8] 105 % of control

Oc1ccc(C/C=C/c2ccccc2)cc1O
inactive: dose: 2.5 mg/kg/injection, schedule: Q01DX009 (ip), vehicle: saline + alcohol 104 % of control | dose: 5.0 mg/kg/injection, schedule: Q01DX009 (ip), vehicle: saline + alcohol 104 % of control | dose: 10.0 mg/kg/injection, schedule: Q01DX009 (ip), vehicle: saline + alcohol 101 % of control

O=[N+]([O-])c1cnc(/C=N/N2CCN(/N=C/c3ncc([N+](=O)[O-])[nH]3)CC2)[nH]1
inactive: dose: 12.5 mg/kg/injection, schedule: Q01DX009 (ip), vehicle: saline with Tween-80 90 % of control | dose: 25.0 mg/kg/injection, schedule: Q01DX009 (ip), vehicle: saline with Tween-80 89 % of control | [9] 88 % of control

COC(=O)C1=C(C(=O)OC)NC2=C(C=N1)CCC2
inactive: [10] 102 % of control | [11] 94 % of control | dose: 240.0 mg/kg/injection, schedule: Q01DX005 (ip), vehicle: saline with Tween-80 91 % of control

CCN(CC)CCOC(=O)C(C)Oc1c2ccoc2c(OC)c2oc(C)cc(=O)c12 (stereo unspecified)
inactive: dose: 50.0 mg/kg/injection, schedule: Q01DX005 (ip), vehicle: saline 102 % of control | dose: 100.0 mg/kg/injection, schedule: Q01DX005 (ip), vehicle: saline 106 % of control | dose: 200.0 mg/kg/injection, schedule: Q01DX005 (ip), vehicle: saline 101 % of control

Cn1c2ccccc2c(=Nc2ccc(S(N)(=O)=O)cc2)c2ccccc21
inactive: [12] 97 % of control

CCN(CC)C(=O)N1C=CC(C)C=C1
inactive: [10] 100 % of control | [11] 101 % of control

C/C(=C\[P+](c1ccccc1)(c1ccccc1)c1ccccc1)N1CC1
inactive: dose: 6.0 mg/kg/injection, schedule: Q01DX001 (ip), vehicle: saline with Tween-80 107 % of control and 115 % of control | dose: 9.0 mg/kg/injection, schedule: Q01DX001 (ip), vehicle: saline with Tween-80 101 % of control and 113 % of control | dose: 12.0 mg/kg/injection, schedule: Q01DX001 (ip), vehicle: saline with Tween-80 105 % of control and 108 % of control | dose: 12.5 mg/kg/injection, schedule: Q01DX001 (ip), vehicle: saline with Tween-80 123 % of control | dose: 18.0 mg/kg/injection, schedule: Q01DX001 (ip), vehicle: saline with Tween-80 105 % of control and 113 % of control

COc1cc2c(c(C(C)(C)C)c1)OC1(O)C2=CC(=O)C=C1C(C)(C)C (stereo unspecified)
inactive: dose: 6.25 mg/kg/injection, schedule: Q01DX005 (ip), vehicle: Klucel (hydroxypropylcellulose) (HPC) 120 % of control | dose: 12.5 mg/kg/injection, schedule: Q01DX005 (ip), vehicle: Klucel (hydroxypropylcellulose) (HPC) 120 % of control | dose: 25.0 mg/kg/injection, schedule: Q01DX005 (ip), vehicle: Klucel (hydroxypropylcellulose) (HPC) 114 % of control | dose: 50.0 mg/kg/injection, schedule: Q01DX005 (ip), vehicle: Klucel (hydroxypropylcellulose) (HPC) 110 % of control | dose: 100.0 mg/kg/injection, schedule: Q01DX005 (ip), vehicle: Klucel (hydroxypropylcellulose) (HPC) 107 % of control

C/C(=N\NC(=S)N1CC2CCC(CC2)C1)c1cccc(C)n1
inactive: dose: 6.25 mg/kg/injection, schedule: Q01DX005 (ip), vehicle: saline with Tween-80 102 % of control and 114 % of control | dose: 12.5 mg/kg/injection, schedule: Q01DX005 (ip), vehicle: saline with Tween-80 112 % of control

COC(=O)C1=CN(c2ccccc2)C(=O)C1
inactive: [4] 118 % of control | [5] 114 % of control | [6] 108 % of control

ClCc1nnc(-c2ccccc2)o1
inactive: [2] 100 % of control | [3] 95 % of control

Cc1ccc(S(=O)(=O)NC(CCC(N)=O)C(=O)O)cc1 (stereo unspecified)
inactive: dose: 50.0 mg/kg/injection, schedule: Q01DX005 (ip), vehicle: saline with Tween-80 100 % of control | [12] 103 % of control | dose: 200.0 mg/kg/injection, schedule: Q01DX005 (ip), vehicle: saline with Tween-80 91 % of control

CC1=CC(C)(O)C=C(C)C1=O
inactive: dose: 3.13 mg/kg/injection, schedule: Q01DX009 (ip), vehicle: water 105 % of control | dose: 6.25 mg/kg/injection, schedule: Q01DX009 (ip), vehicle: water 97 % of control | dose: 12.5 mg/kg/injection, schedule: Q01DX009 (ip), vehicle: water 96 % of control | dose: 25.0 mg/kg/injection, schedule: Q01DX009 (ip), vehicle: water 100 % of control | dose: 50.0 mg/kg/injection, schedule: Q01DX009 (ip), vehicle: water 99 % of control | dose: 100.0 mg/kg/injection, schedule: Q01DX009 (ip), vehicle: water 98 % of control

c1ccc(N=C2SCCCS2)cc1
inactive: [2] 103 % of control | [3] 97 % of control | dose: 200.0 mg/kg/injection, schedule: Q01DX009 (ip), vehicle: Klucel (hydroxypropylcellulose) (HPC) 105 % of control

C=C1C(C2=NCCN2O)OC2OC(C)(C)OC12 (stereo unspecified)
inactive: dose: 100.0 mg/kg/injection, schedule: Q04DX002 (ip), vehicle: Klucel (hydroxypropylcellulose) (HPC) 98 % of control | dose: 200.0 mg/kg/injection, schedule: Q04DX002 (ip), vehicle: Klucel (hydroxypropylcellulose) (HPC) 103 % of control | dose: 400.0 mg/kg/injection, schedule: Q04DX002 (ip), vehicle: Klucel (hydroxypropylcellulose) (HPC) 97 % of control

CC(=O)c1c(O)cc(-c2ccccc2)oc1=O
inactive: dose: 9.5 mg/kg/injection, schedule: Q01DX005 (ip), vehicle: Klucel (hydroxypropylcellulose) (HPC) 91 % of control | dose: 19.0 mg/kg/injection, schedule: Q01DX005 (ip), vehicle: Klucel (hydroxypropylcellulose) (HPC) 96 % of control | dose: 38.0 mg/kg/injection, schedule: Q01DX005 (ip), vehicle: Klucel (hydroxypropylcellulose) (HPC) 93 % of control | dose: 76.0 mg/kg/injection, schedule: Q01DX005 (ip), vehicle: Klucel (hydroxypropylcellulose) (HPC) 106 % of control
